Source: patent US20140349955A1, “USE OF FLUORINE-CONTAINING WATER SOLUBLE PLATINUM COMPLEX IN PREPARING DRUGS FOR PREVENTION AND TREATMENT OF CANCERS” (GUDUI BIOPHARMA TECHNOLOGY INC., priority 2011, published 2014)

Tests used:
L1210 tumor cells = assay: Antitumor efficacy in L1210 tumor-bearing CDF1 mice (increase in life span); format: in vivo
Method: In the following test, antitumor efficacy studies were performed using 8-9 weeks old female CDF1 mice, the average weight of the animal is 20-25 grams. L1210 tumor cells (about 10^5 cells per mouse) were inoculated intraperitoneally. The fluorine-containing water-soluble platinum complexes were used to treat the tumor-bearing animals and the efficacy was compared compared with the clinical platinum antitumor drugs. […] Drugs were administered intraperitoneally on day 1 and day 4 after tumor cell transplantation. The number of experimental animals in each group was 6.
The experimental animals were purchased from Vital River Laboratory Animal Technology Co. Ltd., Tumor cells L1210-leukemia cells were purchased from Shanghai An Yan Commercial Trade Co. Ltd.
The increase in life span (ILS) is calculated as follows:
Wherein, St=the weighted median survival time of treated animals; Su=the weighted median survival time of untreated animals

[1] = cited from earlier work
H460 = assay: MTS cytotoxicity test, H460; format: cell-based; conditions: 96 h, read-out: IC50 value in human tumor cells
Method: (§1) Containing 10% bovine fetal serum, 1 mM of sodium pyruvate, 2 mM of L-glutamine, 50 U/mL of penicillin, 50 μg/mL of streptomycin
(§2) Human tumor cells: dul45-human prostate cancer; MCF-7-human breast cancer; SK0V3-human ovarian carcinoma, HT-29-human colon cancer; A549-human non-small cell lung cancer (adenocarcinoma), H460-human non-small cell lung cancer (large cell carcinoma), and animal tumor cells: L1210-mice leukemia cells used in the following activity test experiments were all purchased from Shanghai An Yan Commercial Trade Co., Ltd.
(§3) MTS test method was used in cytotoxicity assay. The tumor cells of logarithmic phase were collected, and then the concentration of cell suspension was adjusted, 100 μL of the cell suspension was added to each well, the cells were placed at 1000-10000 cells/well (edge well filled with sterile PBS). Cells were incubated at 37° C. with 5% CO2 to make cell monolayer overspread the bottom of each well (96-well flat-bottomed microplate). 100 μL of different concentrations of the test compounds was added to each well. Each condition was measured in five replicates. The microplate was incubated at 37° C. with 5% CO2 for 96 h and checked with inverted microscope. MTS working reagent: To 2 mL of MTS (2 mg/mL, prepared by DPBS) was added 100 μL of PMS (1 mg/mL, prepared by DPBS). The cell culture medium was discarded after centrifugation, the cell culture plate was carefully washed 2-3 times with PBS. Before detecting the absorbance value (OD), to each sample containing well was added 100 μL of cell culture medium, then 20 μL of MTS working reagent was added. After incubation at 37° C. with 5% CO2 for 2 h, the OD (optical density) value was detected at 490 nm.
(§4) Control group: the conditions are the same as the above without adding the active ingredient of antitumor agents, and the OD value was detected at 490 nm on the end of the experiment.
(§5) The cell inhibiting rate of the drugs to tumor cell growth was calculated according to the following formula:
(§6) 1) Cell viability (%)=OD of treated group/OD of control group×100%
(§7) 2) The cell viabilities under the different drug concentrations were determined, and then plotted against drug concentration. The IC50 value is the corresponding concentration in the obtained curve when the cell viability was 50%.

A549 = assay: MTS cytotoxicity test, A549; format: cell-based; conditions: 96 h, read-out: IC50 value in human tumor cells
Method: as §1, §2, §3, §4, §5, §6, §7

HT29 = assay: MTS cytotoxicity test, HT29; format: cell-based; conditions: 96 h, read-out: IC50 value in human tumor cells
Method: as §1, §2, §3, §4, §5, §6, §7

DU145 = assay: MTS cytotoxicity test, DU145; format: cell-based; conditions: 96 h, read-out: IC50 value in human tumor cells
Method: as §1, §2, §3, §4, §5, §6, §7

MCF7 = assay: MTS cytotoxicity test, MCF7; format: cell-based; conditions: 96 h, read-out: IC50 value in human tumor cells
Method: as §1, §2, §3, §4, §5, §6, §7

SKOV3 = assay: MTS cytotoxicity test, SKOV3; format: cell-based; conditions: 96 h, read-out: IC50 value in human tumor cells
Method: as §1, §2, §3, §4, §5, §6, §7

[2] = 24 mg/Kg i.p. on day 1 and day 4
[3] = 40 mg/Kg i.p. on day 1 and day 4
[4] = 80 mg/Kg i.p. on day 1 and day 4
[5] = 50 mg/Kg i.p. on day 1 and day 4
[6] = 100 mg/Kg i.p. on day 1 and day 4
[7] = 200 mg/Kg i.p. on day 1 and day 4

SMILES | IC50 (H460) | IC50 (A549) | IC50 (HT29) | IC50 (DU145) | IC50 (MCF7) | IC50 (SKOV3) | other results
N.N.O=C([O-])C1(C(=O)[O-])CCC1.[Pt+2] [Carboplatin] | – | – | – | – | – | – | ILS (%) (L1210 tumor cells; [2]): 10%; Survived Animals on Day 42 (L1210 tumor cells; [2]): 0/6; Weight Changes (g) (L1210 tumor cells; 24 mg/Kg i.p. on day 1 and day 4, weight changes from the first day to the seventh day): +0 g; ILS (%) (L1210 tumor cells; [3]): 24%; Survived Animals on Day 42 (L1210 tumor cells; [3]): 0/6; Weight Changes (L1210 tumor cells; 40 mg/Kg i.p. on day 1 and day 4, weight changes from the first day to the seventh day): -0.3 g; ILS (%) (L1210 tumor cells; [4]): 55%; Survived Animals on Day 42 (L1210 tumor cells; [4]): 1/6; Weight Changes (L1210 tumor cells; 80 mg/Kg i.p. on day 1 and day 4, weight changes from the first day to the seventh day): -1.2 g; water solubility [1]: 17 mg/mL
O=C1[O][Pt]2([NH]C3CCCCC3[NH]2)[O]C(=O)C1(F)CCOC1OC(CO)C(O)C(O)C1O (stereo not shown) [Complex 8] | 10 µM | 5.12 µM | 1.07 µM | 5.11 µM | 5.1 µM | 49.4 µM | –
O=C1[O][Pt]2([NH]C3CCCCC3[NH]2)[O]C(=O)C1(F)CCCOC1OC(CO)C(O)C(O)C1O (stereo not shown) [Complex 6] | 22.4 µM | 21.8 µM | 2.3 µM | 9.96 µM | 2.04 µM | 22.2 µM | –
O=C1[O][Pt]2([NH][C@@H]3CCCC[C@H]3[NH]2)[O]C(=O)C1(F)CCCOC1O[C@H](CO)[C@@H](O)[C@H](O)[C@H]1O (stereo partly shown) [Complex 3] | 10.1 µM | 0.855 µM | 2.01 µM | 6.6 µM | 0.923 µM | 10.1 µM | –
O=C1[O][Pt]2([NH]C3CCCCC3[NH]2)[O]C(=O)C1(F)CCCOC1OC(CO)C(O)C(O)C1O (stereo not shown) [Complex 9] | 21.4 µM | 10.2 µM | 1.2 µM | 7.04 µM | 6.71 µM | 21.3 µM | ILS (%) (L1210 tumor cells; [5]): >400%; Survived Animals on Day 42 (L1210 tumor cells; [5]): 6/6; Weight Changes (g) (L1210 tumor cells; 50 mg/Kg i.p. on day 1 and day 4, weight changes from the first day to the seventh day): +1.5 g; ILS (%) (L1210 tumor cells; [6]): >400%; Survived Animals on Day 42 (L1210 tumor cells; [6]): 6/6; Weight Changes (g) (L1210 tumor cells; 100 mg/Kg i.p. on day 1 and day 4, weight changes from the first day to the seventh day): +0.1 g; ILS (%) (L1210 tumor cells; [7]): >400%; Survived Animals on Day 42 (L1210 tumor cells; [7]): 6/6; Weight Changes (L1210 tumor cells; 200 mg/Kg i.p. on day 1 and day 4, weight changes from the first day to the seventh day): -0.5 g
O=C1[O][Pt]2([NH][C@@H]3CCCC[C@H]3[NH]2)[O]C(=O)C1(F)CCOC1O[C@H](CO)[C@@H](O)[C@H](O)[C@H]1O (stereo partly drawn) [Complex 2, cis-[trans-(1R, 2R)-diaminocyclohexane] Pt (II) (1—O—D-glucoside-propane-3-fluoro-3,3-dicarb oxylate)] | 9.87 µM | 0.675 µM | 1.55 µM | 4.85 µM | 0.656 µM | 10 µM | –
O=C1[O][Pt]2([NH]C3CCCCC3[NH]2)[O]C(=O)C1(F)CCOC1OC(CO)C(O)C(O)C1O (stereo not shown) [Complex 5] | 10.2 µM | 0.653 µM | 2.16 µM | 2.6 µM | 0.411 µM | 2.22 µM | –
